The term melting point denotes the temperature, or range, at which the solid turns liquid.

The values that follow come from a melting point compilation (Tetko et al.; mined from patent text by program, amines drawn as free bases though some values may be those of a salt).

The structures appear in SMILES notation.

`O=[N+]([O-])c1cc2c(c([N+](=O)[O-])c1)NCC2` yielded a melting point of 244 to 245 °C. On to `COc1cc(C#N)ccc1-c1ccnc(-c2ccc(C#N)cc2)n1`, for which the melting point was 239 to 240 °C. As for `CSc1ccc(C2=NNC(=O)CC2c2ccccc2)cc1` (stereo not given), the melting point lay within 213 to 214 °C.

Compound `Cn1nc(-c2cccc(N3Cc4cc(C(C)(C)C)ccc4C3=O)c2CO)cc(Nc2ccncn2)c1=O` gave a melting point of 236 to 238 °C. Compound `COc1cccc(OC)c1CN1C(=O)C2CCCN2c2ncccc21` (stereo not given) gave a melting point of 200 to 202 °C.

`CC(C)(C)C(=O)C(C(c1ccc(Cl)cc1)n1cncn1)n1cncn1` (stereo not given) had a melting point of 157 to 161 °C. To `C#CC1(COC(C)=O)OC(n2ccc(=O)[nH]c2=O)C(OC(C)=O)C1OC(C)=O` (stereo not given) belongs 160 to 162 °C. To `CCc1[nH]n(C2CCCC2)c2nc(Cc3ccc(OC(=O)c4ccc(CN(CC)CC)cc4)cc3)nc(=O)c1-2` belongs 143 to 145 °C; to `COC(=O)c1ccc(CNC(=O)c2[nH]c(-c3ccoc3)cc2-c2ccc(O)cc2)cc1`, 223 to 224 °C; to `O=Cc1coc2cc(OCCCN3CCC(c4noc5cc(F)ccc45)CC3)ccc2c1=O`, 163 to 165 °C.

In the case of `CCOC(=O)C(=O)Nc1cc(C(F)(F)F)c(Cl)cc1[N+](=O)[O-]`, the melting point fell in the range of 96.5 to 97.5 °C. To `CCOC(=O)C1(CC(=O)O)N=C(c2ccc(Cl)cc2)c2c(sc(C)c2C)-n2c(C)nnc21` (stereo not given) belongs 198 to 202 °C; to `CC#CCOc1cc(/C=C/C(=O)O)ccc1OC(F)F`, 206 to 208 °C. As to `COc1cccc(-c2cn3c(n2)CCc2ccccc2-3)c1`, the melting point was 107 to 109 °C. As to `N#Cc1cccc(C=CCN2CCc3nc(N)sc3CC2)c1`, the melting point was in the range of 136 to 140 °C.

Take `Nc1ccc(OCC(=O)N2CC=C(c3ccc(F)cc3)CC2)cc1`: the melting point lay in the range of 120 to 122 °C. `COC(=O)C1=C(SC)N(c2c(C)cc(C)cc2Cl)CCC1` yielded a melting point of 85.3 to 87.6 °C. `COc1ccc(C(=O)NN=C(N)N)c(F)c1` registered a melting point of 220 °C.

`Cc1cccc(N2C(=S)SCC2(O)CC(C)C)n1` (stereo not given) came in with a melting point of 95 °C. Compound `CCOC(=O)[C@H](Cc1ccc(-c2c(OC)cc(COS(C)(=O)=O)cc2OC)cc1)NC(=O)c1c(F)cccc1F` registered a melting point of 125 to 126 °C.

With `C[C@@H]1Cc2ccsc2[C@H](c2ccccc2)N1CCNS(=O)(=O)c1ccc(N)cc1` (relative stereo), the melting point lay in the range of 184 to 186 °C. To `O=C(O)C(Oc1ccccc1)C(=O)NCC1CCN(c2ccncc2)CC1` (stereo not given) belongs 84 to 86 °C; to `CON(C(=O)c1ccoc1C)C1CCCCC1`, 46 °C.

In turn, `CNC(=O)c1cc(C(=O)c2ccccc2)ccc1N` gave a melting point of 140 °C. The value for `COC(=O)c1ccc(C(=O)C2=C(C)C(=O)c3ccccc3C2=O)cc1` was 162 °C. The value for `O[C@@H]1Cc2ccccc2C[C@H]1N1CCN(c2ccccc2)CC1` (relative stereo) was 152 to 154 °C; that for `O=C1N(CCCCN2CCN(c3n[nH]c4ccccc34)CC2)CSC12CCCC2` was 166 to 168 °C; that for `CC(C)(C)c1cc(C=C2SC(NCO)=NC2=O)cc(C(C)(C)C)c1O` was 177 to 179 °C. The value for `CCCCCCNC(=O)c1cnc(Cl)nc1` was 101 to 102 °C; that for `Oc1c2c(nn1-c1ccccn1)CCc1cc(Br)ccc1-2` was 164 to 165 °C. `CCCCCc1ccc(CC(=O)c2ccc(O)cc2)cc1` showed a melting point of 112 °C. As to `OC(CN1CCNC1=S)c1ccccn1` (stereo not given), the melting point was 120 °C. `CN1CCC(=C2c3ccccc3COc3ccc(C#N)cc32)CC1` yielded a melting point of 134 to 136 °C. To `COC(=O)CCC#Cc1cc(Cl)ccc1N` belongs 67 °C; to `O=S(=O)(O)c1ccc(O)c(O)c1`, 254 to 255 °C; to `Cc1c(CC(=O)O)c2cc3c(cc2n1C(=O)C=Cc1ccccc1)OCO3`, 190 to 191 °C.

On to `CCCCOC(=O)[C@H]1CN(c2cc(F)c(N3CCSCC3)c(F)c2)C(=O)O1`, for which the melting point fell in the range of 102 to 103 °C. The value for `CN1C(=O)N(Cc2ccccc2)CC1(CCO)c1ccc(Cl)c(Cl)c1` (stereo not given) was 118 °C; that for `Cn1cc(-c2cccc(Cl)c2)c(=O)c(-c2cccc(Br)c2)c1` was 192 °C; that for `NS(=O)(=O)c1cc(CCNC(=O)C=Cc2cccs2)ccc1OCC1CCCCO1` (stereo not given) was 106 °C. The value for `CCOC(=O)CCc1ccc2c(c1)CC(NC(=O)OC(C)(C)C)CC2` (stereo not given) was 100 to 102 °C; that for `COc1cc(C(=O)NS(=O)(=O)c2ccccc2Cl)ccc1Cc1cn(C)c2ccc(CC3CCN(C)C3=O)cc12` (stereo not given) was 128 to 135 °C.

In turn, `CCOCCc1c(-c2ccc(OC)cc2)nc(N)n2ncnc12` returned a melting point of 176 to 177 °C. The value for `C=CCN1CC(=O)N2CCC[C@H]2C1=O` was 106 to 109 °C; that for `COC(=O)COc1ccc(NC(=O)CCCCCO)cc1` was 87.5 to 90.4 °C.

In the case of `CC(C)OC(=O)CCC(=O)c1ccc(-c2ccccc2F)cc1`, the melting point is 65 to 66 °C. The value for `CC1(O)CC(C)(C)N(N=Cc2ccccc2)C(C)(C)C1` was 84 °C; that for `O=C(CCc1cccnc1)NC(Cc1c[nH]c2ccccc12)C(=O)CCc1cc(C(F)(F)F)cc(C(F)(F)F)c1` (stereo not given) was 123 to 124 °C. On to `Cc1cc(NCc2ccccc2)n(C)n1`, for which the melting point is 95 to 97 °C. To `O=C(CCO)N[C@H]1CC[C@H](CCN2CCC(c3cccc4c3CCO4)CC2)CC1` belongs 158 °C. The value for `C=CCN1CC(C)N(C(c2cccc(O)c2)c2ccc(C(=O)N(CC)CC)s2)CC1C` (stereo not given) was 113 to 116 °C.

In turn, `O=S1(=O)NC(C2CCCCC2)Nc2ccc(-c3cccc(O)c3)cc21` (stereo not given) had a melting point of 238 to 246 °C.

`NCCC(O)(c1ccc(Br)cc1)c1cccnc1` (stereo not given) came in with a melting point of 95 to 115 °C.

For the compound `OCc1ccnc2cc(Cl)ccc12`, the melting point is 160 °C. To `CC(=O)Nc1nc2c(C)cnc(-c3cccc([N+](=O)[O-])c3)n2n1` belongs 245 to 247 °C; to `CCCOc1cccc(-c2nc(=O)c3ccccc3s2)n1`, 138 to 140 °C; to `COc1ccc([C@@H]2Sc3cc(Oc4ccc5c(c4)OCO5)ccc3NC(=O)[C@@H]2O)cc1`, 188 °C.

Turning to `OCC1OC(c2n[nH]c3cncnc23)C(O)C1O` (stereo not given), the melting point lay within 227 to 228 °C.

Compound `COc1ccc(-n2nc(OC(C)C)cc2-c2ccc(OCCO)cc2)cn1` yielded a melting point of 74 to 75 °C. In the case of `CC1=C(c2ccccc2)C(=O)N(C(C)(C)C(=O)C2CCCCC2)CO1`, the melting point came to 94 °C. Compound `COc1cc2c(cc1OC)OCCC(C(=O)O)=C2` displayed a melting point of 209 to 210 °C. To `Clc1ccccc1Oc1ncc2c(-c3cccs3)n[nH]c2n1` belongs 221 to 223 °C; to `COc1cc(OC)c2c(=O)cc(-c3ccccc3Cl)oc2c1C1CCN(C)C1C(=O)O` (stereo not given), 165 to 167 °C; to `NS(=O)(=O)c1ccc2c(c1)CNC(C1CCCCC1)N2` (stereo not given), 178 to 180 °C. To `Nc1c(F)cc(Cl)c2c1CCCO2` belongs 47 to 50 °C.
